The record followed here is patent US6287792A, “Drug delivery of antisense oligonucleotides and peptides to tissues in vivo and to cells using avidin-biotin technology” (The Regents of the University of California, priority 1991, dated 2001).

Structures are written as SMILES.

The assay relates to isolated bovine brain capillaries (uptake of avidin-biotin complex). Description: uptake of the avidin-biotin complex by isolated bovine brain capillaries in vitro. Conditions: 50 mM, 23° C., thirty minutes. The format is cell-based. Here is the method:
The in vitro studies were performed with isolated bovine brain capillaries used as an in vitro model of blood brain barrier (BBB) transport (16). […] The modest uptake of radioactivity in the presence of buffer alone represents uptake of [P^32 ] nucleotide or phosphate ion generated by capillary nuclease or phosphatase degradation of the antisense oligonucleotide. All incubations were performed at 23° C. for thirty minutes with brain capillary (about 100 μg protein per flask).

In the case of `CO[C@H]1O[C@H](CO)[C@@H](O)[C@H](O)[C@@H]1O` [α-methylmannoside], the “inhibition of the uptake of the avidin-biotin complex by brain capillaries” value was “no significant inhibition”.
